Data published in article PMC11062922 (Nature Chemical Biology, 2023).

Tests used:
CHECK1 = target: T1, CHECK1 (Homo sapiens, UniProt O14757); experiment: Kinobeads two-dose competition binding: CHECK1; details: for CATDS: target CHEK1
T1 construct: endogenous in cells
T1 sequence (O14757 1-476): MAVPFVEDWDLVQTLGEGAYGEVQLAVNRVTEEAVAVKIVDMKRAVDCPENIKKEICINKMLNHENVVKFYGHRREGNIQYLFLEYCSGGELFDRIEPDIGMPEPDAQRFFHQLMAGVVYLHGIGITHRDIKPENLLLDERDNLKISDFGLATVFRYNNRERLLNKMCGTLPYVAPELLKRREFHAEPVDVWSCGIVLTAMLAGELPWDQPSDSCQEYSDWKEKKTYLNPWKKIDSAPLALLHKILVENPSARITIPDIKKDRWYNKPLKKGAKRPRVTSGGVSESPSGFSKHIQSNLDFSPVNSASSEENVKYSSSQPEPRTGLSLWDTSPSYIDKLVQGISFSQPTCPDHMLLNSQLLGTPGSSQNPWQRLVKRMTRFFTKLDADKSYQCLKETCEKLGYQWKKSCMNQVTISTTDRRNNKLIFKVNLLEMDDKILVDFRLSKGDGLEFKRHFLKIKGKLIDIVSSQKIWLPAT
Text: (§1) Briefly, Kinobeads comprise seven broad-spectrum small molecule kinase inhibitors immobilized on Sepharose beads. […]. Compounds of interest are set to compete for target protein binding with Kinobeads in the lysate and the amount of a given protein bound to Kinobeads in the presence of a compound can be quantified relative to a dimethylsulfoxide (DMSO) vehicle control by label-free mass spectrometry. This assay measures the physical interaction of a compound with thousands of endogenous proteins in parallel and, when systematically increasing the concentration of competitor, enables the calculation of an apparent interaction constant ( Kdapp ) for each compound and protein.
(§2) Kinobeads pulldown experiments were performed as described previously[13],[14],[17] with minor modification. […] The protein concentration was adjusted to 5 mg ml^−1. Kinase inhibitors were spiked into 0.5 ml of cell lysate at final concentrations of 100 and 1,000 nM (or DMSO, 0.3, 1, 3, 10, 30, 100, 300 and 1,000 nM for full dose experiments). […] Lysates were incubated for 45 min at 4 °C. Subsequently, lysates were incubated with Kinobeads ε (17.5 µl of settled beads) for 30 min at 4 °C. To assess the degree of protein depletion from the lysates by Kinobeads, the flow through of the DMSO control was recovered for a pulldown of pulldown experiment where the lysate was incubated a second time with fresh Kinobeads. Beads were washed in three steps with buffer containing 0.4%, 0.2% and no IGEPAL. Bound proteins were reduced with 50 mM DTT in 8 M Urea, 40 mM Tris-HCl pH 7.4 for 30 min at room temperature. After alkylation with 55 mM chloroacetamide, the urea concentration was reduced to 1–2 M and proteins were digested with trypsin. Acidified peptides were desalted and concentrated using SepPak tC18 µEluation plates (Waters). Samples were frozen, dried by vacuum centrifugation and stored at −20 °C.
(§3) Each kinase inhibitor was processed together with all DMSO controls of the same plate. Additionally, each search was supplemented with five high quality DMSO controls for consistent peptide identification and protein grouping. The resultant file (proteinGroups.txt) was used for subsequent filtering, normalization, data visualization and target annotation that was automatically performed by a data processing pipeline built in house that used R (including the ‘drc’ and ‘heatmap’ packages). First, reverse hits, potential contaminants and not quantified proteins in the DMSO control samples were discarded. Protein raw and label-free quantification intensities were normalized to the median DMSO control intensity to obtain relative residual binding intensities for each protein group at every inhibitor concentration and standard deviations of the DMSO control intensity were calculated. IC50 values were estimated based on the following equation IC50=I×100−inhibition/inhibition where [I] is the inhibitor concentration that was used for IC50 calculation and ‘inhibition’ the relative residual binding intensity. […]. Estimated Kdapp values were then calculated by multiplying the estimated IC50 values with a protein-dependent correction factor that was limited to a maximum value of one. The correction factor accounts for the depletion of a target protein from the lysate by Kinobeads. The depletion can be measured by the ratio of the amount of protein captured in two consecutive pulldowns of the same DMSO control lysate. In this study, correction factors were determined in separate experiments using the same lysate mixture and the same bead batch. Correction factors were set to the median of all correction factors. Targets of kinase inhibitors were annotated using the previously published random forest classifier. A training data set was annotated manually. […]

BMPR2 = target: T2, BMPR2 (Homo sapiens, UniProt Q13873); experiment: Kinobeads two-dose competition binding: BMPR2; details: for CATDS: target BMPR2
T2 construct: to maximize the representation of endogenous proteins; endogenous in cells
T2 sequence (Q13873 27-1038): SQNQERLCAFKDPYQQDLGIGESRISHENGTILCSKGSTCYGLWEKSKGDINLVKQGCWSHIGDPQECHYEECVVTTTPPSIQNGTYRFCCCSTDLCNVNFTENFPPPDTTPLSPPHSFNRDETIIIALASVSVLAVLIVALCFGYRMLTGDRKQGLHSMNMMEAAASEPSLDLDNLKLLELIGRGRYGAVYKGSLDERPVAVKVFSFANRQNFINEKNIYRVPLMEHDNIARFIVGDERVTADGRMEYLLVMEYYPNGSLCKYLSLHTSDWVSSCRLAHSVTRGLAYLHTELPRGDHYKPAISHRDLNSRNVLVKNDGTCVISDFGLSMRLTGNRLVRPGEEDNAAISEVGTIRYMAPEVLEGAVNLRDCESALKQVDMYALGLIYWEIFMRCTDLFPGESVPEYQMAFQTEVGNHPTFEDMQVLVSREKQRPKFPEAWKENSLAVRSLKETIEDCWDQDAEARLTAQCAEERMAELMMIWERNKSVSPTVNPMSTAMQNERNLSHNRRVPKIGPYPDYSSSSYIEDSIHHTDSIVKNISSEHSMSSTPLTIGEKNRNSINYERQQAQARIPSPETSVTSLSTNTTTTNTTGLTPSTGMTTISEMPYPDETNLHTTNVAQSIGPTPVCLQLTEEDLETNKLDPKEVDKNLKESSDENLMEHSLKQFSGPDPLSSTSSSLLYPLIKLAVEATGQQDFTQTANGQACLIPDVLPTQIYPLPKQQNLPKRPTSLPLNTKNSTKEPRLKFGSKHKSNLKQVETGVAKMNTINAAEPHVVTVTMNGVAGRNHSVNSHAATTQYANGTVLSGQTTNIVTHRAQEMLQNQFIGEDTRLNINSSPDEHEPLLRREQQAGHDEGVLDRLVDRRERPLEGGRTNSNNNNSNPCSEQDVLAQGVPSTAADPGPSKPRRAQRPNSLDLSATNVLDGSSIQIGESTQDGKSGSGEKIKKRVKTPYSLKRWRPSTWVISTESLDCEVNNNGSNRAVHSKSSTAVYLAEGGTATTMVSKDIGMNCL
Text: as §1, §2, §3

ABL1 = ABL1 (Homo sapiens, UniProt P00519); experiment: Kinobeads two-dose competition binding: ABL1; details: sheet CATDS matrix 2; Gene Name ABL1
ABL1, sequence (P00519 28-1130 limits assumed): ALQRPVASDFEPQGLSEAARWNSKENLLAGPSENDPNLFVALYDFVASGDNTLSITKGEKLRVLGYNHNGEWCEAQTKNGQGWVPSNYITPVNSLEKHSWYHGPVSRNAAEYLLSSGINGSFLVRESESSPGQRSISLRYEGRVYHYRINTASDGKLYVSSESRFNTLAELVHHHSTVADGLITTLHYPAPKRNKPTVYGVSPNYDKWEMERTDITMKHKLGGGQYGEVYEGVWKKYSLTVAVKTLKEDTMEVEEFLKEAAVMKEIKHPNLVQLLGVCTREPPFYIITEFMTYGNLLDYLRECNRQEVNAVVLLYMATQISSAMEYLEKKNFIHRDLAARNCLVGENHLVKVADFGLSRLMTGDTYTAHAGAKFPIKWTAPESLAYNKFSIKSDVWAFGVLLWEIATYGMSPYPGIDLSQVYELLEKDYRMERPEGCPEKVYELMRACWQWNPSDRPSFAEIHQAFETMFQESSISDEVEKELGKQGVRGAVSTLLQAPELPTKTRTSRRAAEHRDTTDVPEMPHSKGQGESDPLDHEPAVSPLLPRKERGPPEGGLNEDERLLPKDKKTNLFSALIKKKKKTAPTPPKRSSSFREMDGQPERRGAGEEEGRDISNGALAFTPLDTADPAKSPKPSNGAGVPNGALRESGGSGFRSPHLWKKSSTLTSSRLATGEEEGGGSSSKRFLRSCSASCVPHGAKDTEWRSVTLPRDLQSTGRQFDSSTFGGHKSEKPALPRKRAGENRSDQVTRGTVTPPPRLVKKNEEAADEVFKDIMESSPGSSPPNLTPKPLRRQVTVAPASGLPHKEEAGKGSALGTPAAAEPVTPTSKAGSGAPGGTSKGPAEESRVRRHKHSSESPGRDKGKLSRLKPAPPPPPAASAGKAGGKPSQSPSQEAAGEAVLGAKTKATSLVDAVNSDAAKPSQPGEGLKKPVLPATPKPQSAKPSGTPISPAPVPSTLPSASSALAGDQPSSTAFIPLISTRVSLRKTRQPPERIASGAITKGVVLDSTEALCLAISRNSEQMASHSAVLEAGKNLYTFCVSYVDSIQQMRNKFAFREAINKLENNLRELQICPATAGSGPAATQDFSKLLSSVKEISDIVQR

BMP2K = target: T3, BMP2K (Homo sapiens, UniProt Q9NSY1); experiment: Kinobeads two-dose competition binding: BMP2K; details: for CATDS: target BMP2K
T3 construct: endogenous in cells
T3 sequence (Q9NSY1 whole entry): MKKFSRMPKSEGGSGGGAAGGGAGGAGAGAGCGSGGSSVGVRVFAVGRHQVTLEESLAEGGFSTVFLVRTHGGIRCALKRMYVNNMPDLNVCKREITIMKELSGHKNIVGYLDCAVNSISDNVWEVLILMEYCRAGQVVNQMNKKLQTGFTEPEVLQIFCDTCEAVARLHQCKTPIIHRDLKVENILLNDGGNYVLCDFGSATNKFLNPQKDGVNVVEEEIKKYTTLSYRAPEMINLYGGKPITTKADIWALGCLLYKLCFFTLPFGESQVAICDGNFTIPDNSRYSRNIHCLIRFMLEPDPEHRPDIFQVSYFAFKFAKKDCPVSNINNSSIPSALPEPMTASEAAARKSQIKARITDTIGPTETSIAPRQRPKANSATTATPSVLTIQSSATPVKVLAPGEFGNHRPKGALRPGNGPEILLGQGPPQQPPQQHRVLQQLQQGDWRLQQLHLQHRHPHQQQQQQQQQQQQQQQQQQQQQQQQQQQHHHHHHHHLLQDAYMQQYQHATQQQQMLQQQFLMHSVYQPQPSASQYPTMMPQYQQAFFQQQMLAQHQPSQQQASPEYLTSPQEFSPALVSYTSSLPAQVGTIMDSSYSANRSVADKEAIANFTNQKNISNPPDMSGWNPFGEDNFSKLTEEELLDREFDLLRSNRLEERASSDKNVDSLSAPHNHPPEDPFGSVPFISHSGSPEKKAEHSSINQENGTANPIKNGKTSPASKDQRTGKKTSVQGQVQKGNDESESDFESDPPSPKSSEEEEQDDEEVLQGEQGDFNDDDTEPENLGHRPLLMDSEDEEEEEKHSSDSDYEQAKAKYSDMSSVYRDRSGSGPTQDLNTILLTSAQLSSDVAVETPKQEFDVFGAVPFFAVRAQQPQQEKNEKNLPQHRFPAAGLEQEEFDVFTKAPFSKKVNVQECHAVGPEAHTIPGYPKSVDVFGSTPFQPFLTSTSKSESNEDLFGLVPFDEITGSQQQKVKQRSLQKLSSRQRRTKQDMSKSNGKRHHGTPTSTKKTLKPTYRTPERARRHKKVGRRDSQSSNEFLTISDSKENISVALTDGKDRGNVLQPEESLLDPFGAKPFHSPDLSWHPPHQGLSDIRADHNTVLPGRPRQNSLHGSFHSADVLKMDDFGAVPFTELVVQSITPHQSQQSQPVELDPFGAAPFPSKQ
Text: as §1, §2, §3

Structure (SMILES)	CATDS (CHECK1)	CATDS (BMPR2)	CATDS (ABL1)	CATDS (BMP2K)	potency estimated from few doses (BMPR2; Kinobeads two-dose, Drugmatrix - all 2, read-out: apparent Kd BMPR2) [nM]	potency estimated from few doses (BMP2K; Kinobeads two-dose, Drugmatrix - all 2, read-out: apparent Kd BMP2K) [nM]	potency estimated from few doses (CHECK1; read-out: Lestaurtinib Drugmatrix value, Gene Name CHEK1) [nM]
Nc1ncnc2[nH]c(-c3ccccc3)nc12 [AH5015_KCGS]	0	0	0	0			
CCN1CCN(Cc2ccc(Nc3ncc(F)c(-c4cc(F)c5nc(C)n(C(C)C)c5c4)n3)nc2)CC1 [Abemaciclib]	0	0	0	0			
CN(C)C/C=C/C(=O)Nc1cc2c(Nc3ccc(F)c(Cl)c3)ncnc2cc1O[C@H]1CCOC1 [Afatinib]	0	0	0	0			
CCc1cc2c(cc1N1CCC(N3CCOCC3)CC1)C(C)(C)c1[nH]c3cc(C#N)ccc3c1C2=O [Alectinib]	0	0	0	0			
N#CC1(c2ccc(NC(=O)c3cccnc3NCc3ccncc3)cc2)CCCC1 [Apatinib]	0	0	0	0			
C#Cc1cccc(Nc2ncnc3cc(OC)c(OC4CCN(C)CC4)cc23)c1 [BI00007366]			0				
CC(C)N1CC(=O)N(C)c2cnc(Nc3cccc(S(=O)(=O)CCN4CCOCC4)c3)nc21 [BI00009348]			0		646	736	
C[C@]12O[C@H](C[C@]1(O)CO)n1c3ccccc3c3c4c(c5c6ccccc6n2c5c31)CNC4=O [Lestaurtinib]							98
